Legend:
Assay type in all cases: cell-based, human
mTOR [1] = experiment: Western blot of phospho-mTOR S2481 in PASM cells
Procedure: HPASM cells were purchased from Clonetics and passaged according to the manufacturer's instructions. Cells were plated in 100 mm dishes, and allowed to grow to near confluence before serum starvation for 24 hours. Inhibitors were added to the media 1 hour before the addition of 10% FBS for 30 minutes. Cells were homogenized and the indicated proteins were detected by Western blot.
Measurement of protein phosphorylation: A549 cells were incubated in serum-free medium without or with inhibitors for 1 hour, as indicated, before incubation for 30 minutes with a mixture of LPS, 100 μg/ml (Sigma; St. Louis, Mo.) and IFN-γ, 100 U/ml (Roche; Nutley, N.J.). PASM cells were incubated in serum-free medium without or with inhibitors for 24 h as indicated, before incubation for 30 min with 10% FBS. A549 or PASM cells were washed once with cold PBS and incubated for 15 minutes on ice ih lysis buffer (20 mM Tris pH 8.0, 1% Nonidet P-40, 1 mM EDTA, 5 mM benzamidine, aprotinin, 10 μg/ml, leupeptin, 10 μg/ml, trypsin soybean inhibitor, 1 mM PMSF, 50 mM sodium fluoride, 100 μM sodium orthovanadate, and 1: 100 Sigma phosphatase inhibitor set I containing cantharidin, microcystin LR and bromotetramizole). After freezing and thawing, lysates were centrifuged for 30 min at 16,000×g before protein measurement and storage at −80° C. […] Integrated band densities were quantified using Scion Image beta 3b software.

P70 S6 kinase = experiment: Western blot of phospho-p70 S6 kinase T389 in PASM cells
Procedure: (§1) FIGS. 4A-4D are bar graphs and digital images showing that LY303511 inhibits serum-stimulated phosphorylation of S6K and Akt (FIGS. 4A and 4B), as well as proliferation in PASM cells (FIGS. 4C and 4D). After incubation in serum-free medium for 24 hours, PASM cells were incubated without or with 100 μM LY303511, rapamycin, 200 ng/ml, or 200 nM wortmannin (FIG. 4A), or 0-100 μM LY303511 (FIG. 4B), for 1 hour before the addition of 10% FBS for 30 min and preparation of cell lysates. Equal amounts of protein (20 μg/gel) were separated by SDS-PAGE and transferred to nitrocellulose membranes before immunodetection of phospho-p70 S6 kinase T389 (pS6K) orphospho-Akt S473 (pAkt) by Western blot. Data are from one experiment representative of five.
(§2) HPASM cells were purchased from Clonetics and passaged according to the manufacturer's instructions. Cells were plated in 100 mm dishes, and allowed to grow to near confluence before serum starvation for 24 hours. […] Cells were homogenized and the indicated proteins were detected by Western blot.
(§3) Measurement of protein phosphorylation: A549 cells were incubated in serum-free medium without or with inhibitors for 1 hour, as indicated, before incubation for 30 minutes with a mixture of LPS, 100 μg/ml (Sigma; St. Louis, Mo.) and IFN-γ, 100 U/ml (Roche; Nutley, N.J.). […] Integrated band densities were quantified using Scion Image beta 3b software.

mTOR [2] = experiment: Western blot of phospho-mTOR S2481 (autophosphorylation) in A549 cells; conditions: 0-100 μM LY303511, LPS/IFN-γ
Procedure: Cells were reacted with 0-100 μM LY303511 for 1 hour before addition of L/I for 30 min and preparation of cell lysates. Samples (70 μg) of proteins were separated by SDS-PAGE and transferred to nitrocellulose membranes before immunodetection of phospho-p70 S6 kinase T389 (pS6K), phospho-Akt S473 (pAkt), total p70 S6 kinase (S6K), total Akt (Akt), phospho-mTOR S2481 (pmTOR), or total mTOR (mTOR) by Western blot. Positions of protein standards (kDa) are on the right. For the bar graph and digital images shown in FIG. 1D, band density measurements were also represented graphically. Integrated band densities for pmTOR were normalized to those of total mTOR. […]
A549 cells were treated without or with 100 mcM LY303511, 200 ng/ml rapamycin, or 50 nM wortmannin in serum free media for 1 hour before addition of E. coli lipopolysaccharide (LPS), 1000 mcglml and interferon (IFN)-γ, 100 U/ml (LPS/IFN-γ or “L/I”). Cells were homogenized and the indicated proteins (see Table 1) were detected by Western blot. […]
as §3

A549 cells [3] = experiment: Propidium iodide flow cytometry cell cycle analysis in A549 cells
AKT = experiment: Western blot of phospho-Akt S473 in PASM cells
Procedure: as §1, §2, §3

A549 cells [4] = experiment: KI-67 immunostaining in A549 cells; conditions: 24 hours
Excerpt: Slides were mounted in solution containing DAPI to stain nuclei. Photos were captured using equal laser intensity and gain.

STAT1 = experiment: STAT1-driven luciferase reporter (GAS-luc) in A549 cells; conditions: 100 mcM LY303511 1 hour before LPS/IFN-γ for 6 hours
Procedure: A549 cells were transiently transfected with a reporter vector expressing firefly luciferase driven by STAT1 (GAS-luc, Clontech), and incubated without or with 100 mcM LY303511, rapamycin, 200 ng/ml, or both, for 1 hour before addition of LPS/IFN-γ for 6 hours. STAT1 activity (luciferase activity) was measured in cell lysates (RLU). The data presented are triplicate samples ±SEM, and are representative of two independent experiments.
A549 cells were transiently transfected with a reporter vector expressing firefly luciferase driven by STAT1 (GAS-luc, Clontech), and incubated without or with 100 mcM LY303511, rapamycin, 200 ng/ml, or both, for 1 hour before addition of LPS/IFN-γ for 6 hours. STAT1 activity (luciferase activity) was measured in cell lysates (RLU). The data presented in FIG. 8 are triplicate samples±SEM, and are representative of two independent experiments.

[5] = PASM cells, 10% FBS for 30 minutes

In the case of O=c1cc(N2CCNCC2)oc2c(-c3ccccc3)cccc12 [LY303511, 2-(4-piperazinyl)-8-phenyl-4H-1-benzopyran-4-one], the “serum-stimulated phosphorylation of mTOR at S2481” value (mTOR [1]) is reported as “inhibited serum-stimulated phosphorylation of mTOR at S2481”, the IC50 (P70 S6 kinase; Homo sapiens, pulmonary artery smooth muscle cells, densitometry, read-out: IC50 for inhibition of S6K phosphorylation) is reported as ~1 µM and the “basal and serum-stimulated phosphorylation of P70 S6 kinase” value (P70 S6 kinase; [5]) is reported as “inhibited basal and serum-stimulate phosphorylation of P70 S6 kinase”. For the same compound, the “autophosphorylation of mTOR (S2481)” value (mTOR [2]) was “inhibits autophosphorylation of mTOR in a concentration-dependent fashion”, the “proportion of cells in G2/M” value (A549 cells [3]; 100 μM LY303511, 24 hours) was “remained unchanged” and the “fraction of cells in S phase” value (A549 cells [3]; 24 hours, 10 or 100 μM LY303511 without or with rapamycin 200 ng/ml) was “significantly reduced the fraction of cells in S phase”. The apoptosis or necrosis (A549 cells [3]; flow cytometric analysis of propidium iodide-stained cells) was “did not induce apoptosis or necrosis”, the IC50 (AKT; Homo sapiens, pulmonary artery smooth muscle cells, densitometry, read-out: IC50 for inhibition of Akt phosphorylation) was 10 to 100 µM and the “phosphorylation of AKT” value (AKT; [5]) was “inhibits phosphorylation of AKT, albeit to a lesser extent than phosphorylation of p70 S6 kinase”. The “whole cell KI-67 levels” value (A549 cells [4]) was “significant decrease in whole cell KI-67 levels” and the “STAT1 activation (luciferase activity)” value (STAT1) was “inhibited STAT1 activation”.
